The values that follow come from US12048281B2, “Method for treating post-emergent rice” (BASF SE, priority 2009, dated 2024).

Data set [1] relates to transgenic Indica1 rice callus, ACC gene containing I1781(Am)L and I2041(Am)N. Put plainly: Growth of transgenic Indica1 callus on selection media. In kind it is cell-based, Oryza sativa. As to conditions: construct I1781(Am)L. As to the method:
(§1) Indica1 and Nipponbare rice callus transformation was carried out essentially as described in Hiei and Komari (2008) with the exception of media substitutions as specified (see attached media table for details). Callus was induced on R001M media for 4-8 weeks prior to use in transformation. Agrobacterium utilized was LBA4404(pSB1) (Ishida et al. 1996) transformed with RLM185 (L. Mankin, unpublished: contains DsRed and a mutant AHAS for selection), ACC gene containing I1781(Am)L, ACC gene containing I1781(Am)L and W2027C, ACC gene containing I1781(Am)L and I2041(Am)N, or ACC gene containing I1781(Am)A or wild type which also contains a mutant AHAS gene for selection. Agrobacterium grown for 1-3 days on solid media was suspended in M-LS-002 medium and the OD660 adjusted to approximately 0.1. Callus was immersed in the Agrobacterium solution for approximately 30 minutes. Liquid was removed, and then callus was moved to filter paper for co-culture on semi-solid rice cc media. Co-culture was for 3 days in the dark at 24° C. Filters containing rice callus were directly transferred to R001M media containing Timentin for 1-2 weeks for recovery and cultured in the dark at 30° C. Callus was subdivided onto fresh R001M media with Timentin and supplemented with 100 μM Imazethapyr, 10 μM Cycloxydim or 2.5 μM Tepraloxydim. After 3-4 weeks, callus was transferred to fresh selection media. Following another 3-4 weeks, growing callus was transferred to fresh media and allowed to grow prior to Taqman analysis. Taqman analysis was for the Nos terminator and was conducted to provide for a molecular confirmation of the transgenic nature of the selected calli. Growth of transgenic calli was measured with various selection agents by subculturing calli on media containing either 10 μM Cycloxydim or Haloxyfop, 2.5 μM Tepraloxydim or 100 μM Imazethapry. Calli size was measured from scanned images following initial subculture and then after approximately 1 month of growth.
(§2) As can be observed in Table 7, the double mutant constructs allowed for growth on both Cycloxydim and Tepraloxydim in addition to Haloxyfop. The levels utilized in these growth experiments are inhibitory for wild type material. Growth was measured as a % change in size following 1 month of culture on the selection media.

For data set [2], the system named is transgenic Indica1 rice callus, ACC gene containing I1781(Am)L and W2027(Am)C. Described as above. It counts as cell-based, Oryza sativa. To be noted: construct I1781(Am)L. How it is done: as §1, §2
Data set [3] has as its system rice plants containing the I1,781(Am)L heterozygous mutation. In kind it is in vivo, Oryza sativa. As to conditions: 400-1600 g ai/ha with 0.1% methylated seed oil; rated 1 and 2 weeks after treatment. How it is done:
(§3) Selected mutants and escapes were transferred to small pots. Wild-type cultivars and 3 biovars of red rice were germinated from seed to serve as controls.
(§4) After ca. 3 weeks post-transplant. M0 regenerants were sprayed using a track sprayer with 400-1600 g ai/ha cycloxydim (BAS 517H) supplemented with 0.1% methylated seed oil. After the plants had adapted to greenhouse conditions, a subset were sprayed with 800 g ai/ha cycloxydim. Once sprayed, plants were kept on drought conditions for 24 hours before being watered and fertilized again. Sprayed plants were photographed and rated for herbicide injury at 1 (FIG. 3) and 2 weeks after treatment (FIG. 4). […] FIGS. 5-15 provide nucleic acid and/or amino acid sequences of acetyl-Coenzyme A carboxylase enzymes from various plants. FIG. 17 provides a graph showing results for mutant rice versus various ACCase inhibitors.

Data set [4] relates to control plants (wild-type cultivars, red rice) and tissue culture escapes. Briefly: Greenhouse track-sprayer test, herbicide injury rating. In kind it is in vivo, Oryza sativa. As to conditions: 400-1600 g ai/ha with 0.1% methylated seed oil; rated 1 and 2 weeks after treatment. As to the method: as §3, §4
Data set [5] deals with ACCase-inhibitor tolerant rice plants. Put plainly: Field treatment of ACCase-inhibitor tolerant rice. In kind it is in vivo, Oryza sativa. As to conditions: 600 g/ha; data not shown.

For the compound `CCc1cnc(C2=NC(C)(C(C)C)C(=O)N2)c(C(=O)O)c1` (centres unmarked) [P100, Imazethapyr], the “Growth, % change in size following 1 month of culture on the selection media” value (shortened to “Growth, % change … on the selection media”) in data set [1] (100 μM in selection media) is reported as 634%; in data set [2] (100 μM in selection media), 739%.

With `CCCC(=NOCC)C1=C(O)CC(C2CCCSC2)CC1=O` (centres unmarked) [cycloxydim], the “Growth, % change … on the selection media” value is given as 884% in data set [1] (10 μM in selection media) and 867% in data set [2] (10 μM in selection media). The herbicide injury entry in data set [3] is “No injury”; in data set [4], “heavily damaged”. Besides, the “herbicide tolerance in the field” value in data set [5] is listed as “Herbicide tolerance phenotypes as described herein have also been exhibited”.

With `CC(Oc1ccc(Oc2ncc(C(F)(F)F)cc2Cl)cc1)C(=O)O` (centres unmarked) [haloxyfop], the “Growth, % change … on the selection media” value is listed as 1613% in data set [1] (10 μM in selection media) and 1669% in data set [2] (10 μM in selection media).

Regarding `CC/C(=N\OC/C=C/Cl)C1=C(O)CC(C2CCOCC2)CC1=O` (centres unmarked) [tepraloxydim], the figures for the “Growth, % change … on the selection media” value in data set [1] (2.5 μM in selection media) and in data set [2] (2.5 μM in selection media) were 1360% and 1416%, respectively.
